Laboratory results published in patent US12377035B2, “Peptides for inhibiting cholinergic calcitonin gene-related peptide (CGRP) and acetylcholine (ACH) release or inhibiting sensitization-mediated by TRPV1-mediated excitability in sensory neurons and methods of use thereof” (AZIENDE CHIMICHE RIUNITE ANGELINI FRANCESCO—A.C.R.A.F. …, priority 2018, dated 2025).
Residues, ends and D or L forms follow the SMILES beside them. *: point of attachment. Palmitoyl = CCCCCCCCCCCCCCCC(=O)*

What was measured:
Type in all cases: cell-based
[1] = test system: CGRP induced-release on peptidergic sensory neurons (dorsal root ganglia); assay: Inhibition of capsaicin-induced CGRP release on cultured sensory neurons (CGRP EIA); conditions: 1 hour, 1 μM capsaicin 10 min
Experimental: The induction of the release of calcitonin-gene related peptide (CGRP) with capsaicin enables direct measurement of neuronal exocytosis (Meng J. et al., J. Cell. Sci. (2007) 15; 120(Pt 16):2864-74, and Meng J. et al., Mol. Neurobiol. (2014); 50(2):574-88).
The tested peptides were evaluated by measuring their capability of inhibiting CGRP induced-release on peptidergic sensory neurons. Dorsal root ganglia were seeded (50.000 cells/well) in a 96-well plate previously coated with poly-L-lysine and laminin. After 48 hours seeding, cells were incubated with Hank's Balanced salt solution containing peptides of invention at 20, 50 or 100 μM for 1 hour. Next, cells were stimulated for 10 min with 1 μM capsaicin at 37° C. Then, CGRP content was determined in supernatants using colorimetric based CGRP EIA (Spi-Bio Inc) following manufacturer's instructions. Absorbance measurements (405 nm) were standardized with regard to the maximum signal detected with capsaicin stimulation in vehicle treated cells. Inhibition values of CGRP release were calculated as percentages by considering maximum signal to capsaicin-induced release and minimum as non-stimulated cells. Table D details inhibition values of […] obtained for the peptides of invention.

[2] = test system: acetylcholine release, human neuroblastoma cell line differentiated to cholinergic neuronal phenotype; assay: Inhibition of KCl-induced acetylcholine release in a neuroblastoma cell line (Amplex Red); conditions: for % Ach release inhibition: 50 mM KCl
Experimental: To determine the compound of the invention effects on acetylcholine release, a human neuroblastoma cell line (50.000 cells/well) was used. Cells were differentiated to cholinergic neuronal phenotype for 4 days. Then, cells were pre-incubated for 60 minutes with the compounds (between 0.1 and 100 μM) as acetyl- or palmitoyl-form and conjugated with trifluoroacetate (TFA) or acetate salt. Afterwards, acetylcholine release was induced by membrane depolarization evoked by 15 minutes incubation with 50 mM KCl. Acetylcholine level in supernatants was quantified by using Amplex® Red Acetylcholine Assay Kit (Thermofisher) following manufacturer's instructions. […] Fluorescence (Ex 530 nm/Em 590 nm) was measured in FluorStar equipment. Acetylcholine content was normalized to the total protein content using BCA assay (Pierce) following manufacturer's instructions. Fluorescence measurements were normalized to the maximum signal detected with KCl stimulation in vehicle treated cells. Vesicle exocytosis disruption by the compounds of the invention lead to a decrease of acetylcholine release (Table E).

[3] = test system: human epidermal keratinocytes (HEKa); assay: MTT cell viability assay on epidermal keratinocytes; conditions: for % inhibition cell viability: HEKa, 24 hours; for effect on cell viability (in words): human epidermal keratinocytes, up to 200 μM
Experimental: (§1) This example evaluated effects of the peptides of invention on human epidermal keratinocytes and dermal fibroblasts. Cell viability was determined with the 3-(4,5-dimethyl-2-thiazolyl)-2,5-diphenyl-2H-tetrazolium bromide (MTT) assay. The MTT assay is a colorimetric reaction based on the capacity of the mitochondrial dehydrogenase enzyme to break and transform the tetrazolium rings of MTT. Epidermal keratinocytes (HEKa) were seeded in a previously coated 96 well-plate at 50-60% confluence in 100 μL of supplemented corresponding medium. Dermal fibroblasts (HDFa) were seeded in a 96 well-plate at 70% confluence in 100 μL supplemented medium. For both cell lines, 24 hours after seeding, medium was replaced by fresh supplemented medium containing peptides dissolved at concentration range between 0.1 and 200 μM. All test substances were incubated for 24 hours at 37° C. and 5% CO2. Afterwards, medium was replaced by 0.5 mg/ml of MTT solution for 4 hours in complete medium. Then, medium was carefully removed and 150 μL/well of DMSO were added to solubilize formazan crystals. Plate was protected from light, shaken for 60 seconds and optical density was measured at 570 nm with a reference filter of 620 nm. Table F details effects of peptides of invention on keratinocytes and fibroblasts cell viability expressed as percentage of inhibition.

[4] = test system: human dermal fibroblasts (HDFa); assay: MTT cell viability assay on dermal fibroblasts; conditions: for % inhibition cell viability: HDFa, 24 hours; for effect on cell viability (in words): dermal fibroblast, up to 200 μM
Experimental: as §1

CCCCCCCCCCCCCCCC(=O)N[C@@H](CCSC)C(=O)N[C@@H](CCC(N)=O)C(=O)N[C@H](C(=O)N[C@@H](Cc1c[nH]c2ccccc12)C(=O)N[C@@H](CC(C)C)C(=O)N[C@@H](CCCNC(=N)N)C(=O)N[C@@H](CCSC)C(=O)N[C@@H](Cc1c[nH]c2ccccc12)C(=O)N[C@H](C(=O)N[C@@H](CC(=O)O)C(=O)N[C@@H](Cc1ccc(O)cc1)C(=O)N[C@@H](CCCNC(=N)N)C(=O)N[C@@H](C)C(=O)N[C@H](C(N)=O)[C@@H](C)O)[C@@H](C)CC)C(C)C [SEQ ID NO: 2 palmitoyl, MQVWLRMWIDYRAT] (Palmitoyl-MQVWLRMWIDYRAT-NH2)
% CGRP release inhibition ([1]; peptide 20 μM): 35.5% | % CGRP release inhibition ([1]; peptide 50 μM): 53.9% | % Ach release inhibition ([2]; TFA salt, 5 μM): −46.1% | % Ach release inhibition ([2]; TFA salt, 10 μM): −35.1% | % Ach release inhibition ([2]; TFA salt, 50 μM): 20.6% | % inhibition cell viability ([3]; 0.1 μM): 12.1% | % inhibition cell viability ([3]; 0.5 μM): 20.9% | % inhibition cell viability ([3]; 1 μM): 25.6% | % inhibition cell viability ([3]; 5 μM): 36.9% | % inhibition cell viability ([3]; 10 μM): 36.5% | % inhibition cell viability ([3]; 50 μM): 32.5% | % inhibition cell viability ([4]; 0.1 μM): 30.8% | % inhibition cell viability ([4]; 0.5 μM): 42.9% | % inhibition cell viability ([4]; 1 μM): 45.8% | % inhibition cell viability ([4]; 5 μM): 47.3% | % inhibition cell viability ([4]; 10 μM): 47.1% | % inhibition cell viability ([4]; 50 μM): 35.3%

CCCCCCCCCCCCCCCC(=O)N[C@@H](CCCNC(=N)N)C(=O)N[C@@H](CCCNC(=N)N)C(=O)N[C@H](C(=O)N[C@H](C(=O)N[C@@H](CC(C)C)C(=O)N[C@H](C(=O)N[C@@H](CC(N)=O)C(=O)N[C@@H](CC(N)=O)C(=O)N[C@H](C(=O)N[C@@H](CC(C)C)C(N)=O)[C@@H](C)CC)C(C)C)C(C)C)C(C)C [SEQ ID NO: 3 palmitoyl, RRVVLVNNIL] (Palmitoyl-RRVVLVNNIL-NH2)
% CGRP release inhibition ([1]; peptide 20 μM): 34.0% | % CGRP release inhibition ([1]; peptide 50 μM): 74.8% | % Ach release inhibition ([2]; Acetate salt, 0.1 μM): 57.0% | % Ach release inhibition ([2]; Acetate salt, 1 μM): 92.5% | % Ach release inhibition ([2]; Acetate salt, 10 μM): 86.7% | % Ach release inhibition ([2]; TFA salt, 5 μM): 75.4% | % Ach release inhibition ([2]; TFA salt, 10 μM): 81.8% | % Ach release inhibition ([2]; TFA salt, 50 μM): 82.8% | activity on ACh release (in words) ([2]; lowest concentration tested 0.1 μM): active | % inhibition cell viability ([3]; 0.1 μM): −3.8% | % inhibition cell viability ([3]; 0.5 μM): −0.9% | % inhibition cell viability ([3]; 1 μM): 11.7% | % inhibition cell viability ([3]; 5 μM): 9.9% | % inhibition cell viability ([3]; 10 μM): 22.4% | % inhibition cell viability ([3]; 50 μM): 24.8% | effect on keratinocyte viability (in words) ([3]; at 1 µM or below): did not modify keratinocyte and fibroblast viability | % inhibition cell viability ([4]; 0.1 μM): 6.0% | % inhibition cell viability ([4]; 0.5 μM): 15.5% | % inhibition cell viability ([4]; 1 μM): 8.7% | % inhibition cell viability ([4]; 5 μM): 25.7% | % inhibition cell viability ([4]; 10 μM): 27.2% | % inhibition cell viability ([4]; 50 μM): 24.3% | effect on fibroblast viability (in words) ([4]; at 1 µM or below): did not modify keratinocyte and fibroblast viability

Ac-HYWRELQYR-NH2 [SEQ ID NO: 1 acetyl, HYWRELQYR]
% CGRP release inhibition ([1]; peptide 20 μM): 10.1% | % CGRP release inhibition ([1]; peptide 100 μM): 39.1% | % Ach release inhibition ([2]; Acetate salt, 1 μM): 27.9% | % Ach release inhibition ([2]; Acetate salt, 10 μM): 55.9% | % Ach release inhibition ([2]; TFA salt, 10 μM): 87.9% | % Ach release inhibition ([2]; TFA salt, 50 μM): 33.6% | % Ach release inhibition ([2]; TFA salt, 100 μM): 65.9% | % inhibition cell viability ([3]; 1 μM): −1.4% | % inhibition cell viability ([3]; 5 μM): 8.8% | % inhibition cell viability ([3]; 10 μM): 1.7% | % inhibition cell viability ([3]; 50 μM): 7.4% | % inhibition cell viability ([3]; 100 μM): 6.2% | % inhibition cell viability ([3]; 200 μM): 9.5% | effect on cell viability (in words) [3]: did not modify cell viability | % inhibition cell viability ([4]; 1 μM): 0.2% | % inhibition cell viability ([4]; 5 μM): 9.7% | % inhibition cell viability ([4]; 10 μM): 33% | % inhibition cell viability ([4]; 50 μM): 3.9% | % inhibition cell viability ([4]; 100 μM): 6.8% | % inhibition cell viability ([4]; 200 μM): 2.9% | effect on cell viability (in words) [4]: did not modify cell viability

Ac-LRVQMVNMFL-NH2 [SEQ ID NO: 4 acetyl, LRVQMVNMFL]
% CGRP release inhibition ([1]; peptide 20 μM): 14.2% | % CGRP release inhibition ([1]; peptide 100 μM): 77.4% | % Ach release inhibition ([2]; Acetate salt, 0.1 μM): around 40% | % Ach release inhibition ([2]; TFA salt, 10 μM): 84.3% | % Ach release inhibition ([2]; TFA salt, 50 μM): 58.9% | % Ach release inhibition ([2]; TFA salt, 100 μM): 6.8% | % inhibition cell viability ([3]; 1 μM): 13.6% | % inhibition cell viability ([3]; 5 μM): 2.6% | % inhibition cell viability ([3]; 10 μM): 6.0% | % inhibition cell viability ([3]; 50 μM): 19.5% | % inhibition cell viability ([3]; 100 μM): 31.6% | % inhibition cell viability ([3]; 200 μM): 41.1% | effect on keratinocyte viability (in words) ([3]; assessed below 50 μM): did not modify keratinocyte viability | % inhibition cell viability ([4]; 1 μM): 14.5% | % inhibition cell viability ([4]; 5 μM): 28.4% | % inhibition cell viability ([4]; 10 μM): 37.1% | % inhibition cell viability ([4]; 50 μM): 40.6% | % inhibition cell viability ([4]; 100 μM): 41.5% | % inhibition cell viability ([4]; 200 μM): 22.9%

Ac-MQVWLRMWIDYRAT-NH2 [SEQ ID NO: 2 acetyl, MQVWLRMWIDYRAT]
% CGRP release inhibition ([1]; peptide 20 μM): 49.3% | % CGRP release inhibition ([1]; peptide 100 μM): 55.3% | % Ach release inhibition ([2]; Acetate salt, 1 μM): 41.0% | % Ach release inhibition ([2]; Acetate salt, 10 μM): 55.8% | % Ach release inhibition ([2]; TFA salt, 5 μM): 76.2% | % Ach release inhibition ([2]; TFA salt, 10 μM): 78.8% | % Ach release inhibition ([2]; TFA salt, 20 μM): 10.9% | % inhibition cell viability ([3]; 1 μM): −1.2% | % inhibition cell viability ([3]; 5 μM): −1.8% | % inhibition cell viability ([3]; 10 μM): −0.5% | % inhibition cell viability ([3]; 50 μM): −4.6% | % inhibition cell viability ([3]; 100 μM): −0.7% | % inhibition cell viability ([3]; 200 μM): 1.2% | effect on cell viability (in words) [3]: did not modify cell viability | % inhibition cell viability ([4]; 1 μM): 10.1% | % inhibition cell viability ([4]; 5 μM): 12.3% | % inhibition cell viability ([4]; 10 μM): 8.5% | % inhibition cell viability ([4]; 50 μM): 1.4% | % inhibition cell viability ([4]; 100 μM): 7.8% | % inhibition cell viability ([4]; 200 μM): 24.6% | effect on cell viability (in words) [4]: did not modify cell viability
